Numbered stars: 1 amine (or outer) side, 2 acyl side, 3 side chain; on linkers, the order of the positions; unused ones are H or OH. Square brackets hold non-standard residues; d marks the D form. Peptide text beside a SMILES is read from it. * marks the point of attachment. X5 = NCCC(=O)N[C@@H]1C[C@@H](C(=O)[*:2])N([*:1])C1; Phe(4-Me) = Cc1ccc(C[C@H](N)C(=O)O)cc1; Pro(4R-NH2) = N[C@H]1CN[C@H](C(=O)O)C1; dLys(Me2) = CN(C)CCCC[C@@H](N)C(=O)O; X2 = O=C([C@H]1CCCN([*:1])C1)[*:2]; dDap(Me2) = CN(C)C[C@@H](N)C(=O)O; Hyp = O=C(O)[C@@H]1C[C@@H](O)CN1; NHcycloheptyl = C1CCCC(N*)CC1; NMeL = CN[C@@H](CC(C)C)C(=O)O; Octanoyl = CCCCCCCC(=O)*; Api = NC1(C(=O)O)CCNCC1
These compounds were tested against T1, NPR-B (Homo sapiens, UniProt P20594) (assay: NPR-B induced production of cyclic GMP in human glaucoma trabecular meshwork cells (GTM-3)). Settings: not given.
T1 construct: a functional assay using endogenously NPR-B expressing GTM-3 cells; endogenous in cells; host or cells: GTM-3 (human glaucoma trabecular meshwork cells)
T1 sequence (P20594 23-1047): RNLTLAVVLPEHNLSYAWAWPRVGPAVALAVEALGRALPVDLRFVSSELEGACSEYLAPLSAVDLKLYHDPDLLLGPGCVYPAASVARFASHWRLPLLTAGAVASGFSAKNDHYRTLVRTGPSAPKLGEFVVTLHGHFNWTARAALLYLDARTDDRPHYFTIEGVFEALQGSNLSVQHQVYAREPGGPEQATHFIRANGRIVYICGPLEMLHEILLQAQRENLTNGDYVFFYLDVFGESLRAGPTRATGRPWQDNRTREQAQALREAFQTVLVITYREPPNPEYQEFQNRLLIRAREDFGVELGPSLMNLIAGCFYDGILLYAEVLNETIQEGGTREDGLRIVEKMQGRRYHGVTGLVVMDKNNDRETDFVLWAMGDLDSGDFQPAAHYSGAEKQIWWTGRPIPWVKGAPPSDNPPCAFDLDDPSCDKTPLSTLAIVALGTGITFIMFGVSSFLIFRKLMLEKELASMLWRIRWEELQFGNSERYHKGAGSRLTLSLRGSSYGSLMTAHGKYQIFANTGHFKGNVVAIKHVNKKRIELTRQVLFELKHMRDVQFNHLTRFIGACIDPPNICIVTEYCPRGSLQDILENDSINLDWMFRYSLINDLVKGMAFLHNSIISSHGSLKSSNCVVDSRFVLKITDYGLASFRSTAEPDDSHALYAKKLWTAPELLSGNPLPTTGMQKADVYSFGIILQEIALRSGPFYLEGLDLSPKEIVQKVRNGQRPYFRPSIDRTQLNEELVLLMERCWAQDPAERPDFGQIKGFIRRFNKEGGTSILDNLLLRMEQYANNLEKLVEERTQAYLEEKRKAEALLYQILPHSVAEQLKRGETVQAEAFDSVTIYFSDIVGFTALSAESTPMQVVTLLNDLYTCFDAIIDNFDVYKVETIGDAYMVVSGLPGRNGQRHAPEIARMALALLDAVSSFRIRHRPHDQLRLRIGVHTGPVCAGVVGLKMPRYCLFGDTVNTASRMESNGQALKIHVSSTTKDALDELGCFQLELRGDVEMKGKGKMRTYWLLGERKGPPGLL
Type: cell-based

Row | SMILES | EC50 [nM]
1 | CCCCCCCC(=O)N[C@H](C)C(=O)N[C@@H](Cc1ccccc1)C(=O)NCC(=O)N[C@@H](CC(C)C)C(=O)N1C[C@H](N)C[C@H]1C(=O)N[C@@H](CC(C)C)C(=O)N[C@@H](CC(=O)O)C(=O)N[C@@H](CCCNC(=N)N)C(=O)N[C@H](C(N)=O)[C@@H](C)CC [JAL-1249, Occ-ala-Phe-Gly-Leu-Tap-Leu-Asp-Arg-Ile-NH2] (HELM PEPTIDE1{[CCCCCCCC(=O)[*:2]].[dA].F.G.L.[N[C@@H]1C[C@@H](C(=O)[*:2])N([*:1])C1].L.D.R.I.[am]}$$$$V2.0) | < 1000

Same assay, conditions: group by EC50 and Emax (CNP = 100%); Table 4; read-out: Activity (group), NPR-B activation assayed with GTM-3 cells

Row | SMILES | EC50 [nM]
2 | CCCCCCCC(=O)N1CCC[C@H](C(=O)N[C@@H](Cc2ccccc2)C(=O)N[C@H](CC(C)C)C(=O)N[C@@H](CC(C)C)C(=O)N2C[C@H](NC(=O)CCN)C[C@H]2C(=O)N(C)[C@@H](CC(C)C)C(=O)N[C@@H](CC(=O)O)C(=O)N[C@@H](CCCNC(=N)N)C(=O)N[C@H](C(N)=O)[C@@H](C)CC)C1 [JAL-1323, Occ-Sni-Phe-leu-Leu-Tap(Bal)-Nml-Asp-Arg-Ile-NH2] (Octanoyl-[X2]F[dL]L[X5][NMeL]DRI-NH2) | < 1000
3 | CCCCCCCC(=O)N[C@H](C)C(=O)N[C@@H](Cc1ccccc1)C(=O)N[C@H](CC(C)C)C(=O)N[C@@H](CC(C)C)C(=O)N1C[C@H](N)C[C@H]1C(=O)N(C)[C@@H](CC(C)C)C(=O)N[C@@H](CC(=O)O)C(=O)N[C@@H](CCCNC(=N)N)C(=O)N[C@H](C(N)=O)[C@@H](C)CC [JAL-1296, Occ-ala-Phe-leu-Leu-Tap-Nml-Asp-Arg-Ile-NH2] (HELM PEPTIDE1{[CCCCCCCC(=O)[*:2]].[dA].F.[dL].L.[N[C@@H]1C[C@@H](C(=O)[*:2])N([*:1])C1].[meL].D.R.I.[am]}$$$$V2.0) | < 1000
4 | CCCCCCCC(=O)N1CCC[C@H](C(=O)N[C@@H](Cc2ccccc2)C(=O)NC2(C(=O)N[C@@H](CC(C)C)C(=O)N3C[C@H](N)C[C@H]3C(=O)N(C)[C@@H](CC(C)C)C(=O)N[C@@H](CC(=O)O)C(=O)N[C@@H](CCCNC(=N)N)C(=O)N[C@H](C(N)=O)[C@@H](C)CC)CCNCC2)C1 [JAL-1351, Occ-Sni-Phe-Apc-Leu-Tap-Nml-Asp-Arg-Ile-NH2] (Octanoyl-[X2]F[Api]L[Pro(4R-NH2)][NMeL]DRI-NH2) | < 1000
5 | CCCCCCCC(=O)N[C@H](C)C(=O)N(C)[C@@H](Cc1ccccc1)C(=O)N[C@H](CC(C)C)C(=O)N[C@@H](CC(C)C)C(=O)N1C[C@H](O)C[C@H]1C(=O)N[C@@H](CC(C)C)C(=O)N[C@@H](CC(=O)O)C(=O)N[C@@H](CCCNC(=N)N)C(=O)N[C@H](C(N)=O)[C@@H](C)CC [JAL-1052, Occ-ala-Nmf-leu-Leu-Hyp-Leu-Asp-Arg-Ile-NH2] (HELM PEPTIDE1{[CCCCCCCC(=O)[*:2]].[dA].[meF].[dL].L.[Hyp].L.D.R.I.[am]}$$$$V2.0) | < 1000
6 | CCCCCCCC(=O)N[C@H](C)C(=O)N[C@@H](Cc1ccccc1)C(=O)N[C@H](CCCNC(=N)N)C(=O)N[C@@H](CC(C)C)C(=O)N1C[C@H](O)C[C@H]1C(=O)N[C@@H](CC(C)(C)C)C(=O)N[C@@H](CC(=O)O)C(=O)N[C@@H](CCCNC(=N)N)C(=O)N[C@H](C(N)=O)[C@@H](C)CC [JAL-1225, Occ-ala-Phe-arg-Leu-Hyp-Npg-Asp-Arg-Ile-NH2] (HELM PEPTIDE1{[CCCCCCCC(=O)[*:2]].[dA].F.[dR].L.[Hyp].[CC(C)(C)C[C@H](N[*:1])C(=O)[*:2]].D.R.I.[am]}$$$$V2.0) | < 1000
7 | CCCCCCCC(=O)N[C@H](C)C(=O)N[C@@H](Cc1ccccc1)C(=O)N[C@H](CC(C)C)C(=O)N[C@@H](CC(C)C)C(=O)N1C[C@H](O)C[C@H]1C(=O)N[C@@H](CN(C)C)C(=O)N[C@@H](CC(=O)O)C(=O)N[C@@H](CCCNC(=N)N)C(=O)N[C@H](C(N)=O)[C@@H](C)CC [JAL-1367, Occ-ala-Phe-leu-Leu-Hyp-Dap(Me2)-Asp-Arg-Ile-NH2] (HELM PEPTIDE1{[CCCCCCCC(=O)[*:2]].[dA].F.[dL].L.[Hyp].[CN(C)C[C@H](N[*:1])C(=O)[*:2]].D.R.I.[am]}$$$$V2.0) | < 1000
8 | CCCCCCCCN1CCC[C@H](C(=O)N[C@@H](Cc2ccccc2)C(=O)N[C@H](CC(C)C)C(=O)N[C@@H](CC(C)C)C(=O)N2C[C@H](N)C[C@H]2C(=O)N(C)[C@@H](CC(C)C)C(=O)N[C@@H](CC(=O)O)C(=O)N[C@@H](CCCNC(=N)N)C(=O)N[C@H](C(N)=O)[C@@H](C)CC)C1 [JAL-1326, Oct-Sni-Phe-leu-Leu-Tap-Nml-Asp-Arg-Ile-NH2] (HELM PEPTIDE1{[CCCCCCCCN1CCC[C@H](C(=O)[*:2])C1].F.[dL].L.[N[C@@H]1C[C@@H](C(=O)[*:2])N([*:1])C1].[meL].D.R.I.[am]}$$$$V2.0) | < 1000
9 | CCCCCCCC(=O)N[C@H](C)C(=O)N[C@@H](Cc1ccccc1)C(=O)N[C@H](CC(C)C)C(=O)N[C@@H](CC(C)C)C(=O)N1C[C@H](O)C[C@H]1C(=O)N(C)[C@@H](CC(C)C)C(=O)N[C@@H](CC(=O)O)C(=O)N[C@@H](CCCNC(=N)N)C(=O)N[C@H](C(N)=O)C(C)(C)C [JAL-1352, Occ-ala-Phe-leu-Leu-Hyp-Nml-Asp-Arg-Tbg-NH2] (HELM PEPTIDE1{[CCCCCCCC(=O)[*:2]].[dA].F.[dL].L.[Hyp].[meL].D.R.[CC(C)(C)[C@H](N[*:1])C(=O)[*:2]].[am]}$$$$V2.0) | < 1000
10 | CCCCCCCC(=O)N[C@H](C)C(=O)N[C@@H](Cc1ccccc1)C(=O)N[C@H](CCCNC(=N)N)C(=O)N[C@@H](CC(C)C)C(=O)N1C[C@H](N)C[C@H]1C(=O)N[C@@H](CC(C)C)C(=O)N[C@@H](CC(=O)O)C(=O)N[C@@H](CCCNC(=N)N)C(=O)N[C@H](C(N)=O)[C@@H](C)CC [JAL-1250, Occ-ala-Phe-arg-Leu-Tap-Leu-Asp-Arg-Ile-NH2] (HELM PEPTIDE1{[CCCCCCCC(=O)[*:2]].[dA].F.[dR].L.[N[C@@H]1C[C@@H](C(=O)[*:2])N([*:1])C1].L.D.R.I.[am]}$$$$V2.0) | < 1000

Continued, values first:

Row | EC50 [nM] | SMILES
11 | < 1000 | CCCCCCCC(=O)N1CCC[C@H](C(=O)N[C@@H](Cc2ccccc2)C(=O)N[C@H](CCCCN(C)C)C(=O)N[C@@H](CC(C)C)C(=O)N2C[C@H](O)C[C@H]2C(=O)N(C)[C@@H](CC(C)C)C(=O)N[C@@H](CC(=O)O)C(=O)N[C@@H](CCCNC(=N)N)C(=O)NC2CCCCCC2)C1 [JAL-1777, Occ-Sni-Phe-lys(Me2)-Leu-Hyp-Nml-Asp-Arg-Che] (Octanoyl-[X2]F[dLys(Me2)]L[Hyp][NMeL]DR-NHcycloheptyl)
12 | < 1000 | CCCCCCCC(=O)N1CCC[C@H](C(=O)N[C@@H](Cc2ccc(C)cc2)C(=O)N[C@H](CC(C)C)C(=O)N[C@@H](CC(C)C)C(=O)N2C[C@H](O)C[C@H]2C(=O)N(C)[C@@H](CC(C)C)C(=O)N[C@@H](CC(=O)O)C(=O)N[C@@H](CCCNC(=N)N)C(=O)N[C@H](C(N)=O)[C@@H](C)CC)C1 [JAL-1494, Occ-Sni-Pmf-leu-Leu-Hyp-Nml-Asp-Arg-Ile-NH2] (Octanoyl-[X2][Phe(4-Me)][dL]L[Hyp][NMeL]DRI-NH2)
13 | < 1000 | CCCCCCCC(=O)N1CCC[C@H](C(=O)N[C@@H](Cc2ccccc2)C(=O)N[C@H](CC(C)C)C(=O)N[C@@H](CC(C)C)C(=O)N2C[C@H](O)C[C@H]2C(=O)N(C)[C@@H](CC(C)C)C(=O)N[C@@H](CC(=O)O)C(=O)N[C@@H](CCCNC(=N)N)C(=O)NC2CCCCCC2)C1 [JAL-1680, Occ-Sni-Phe-leu-Leu-Hyp-Nml-Asp-Arg-Che] (Octanoyl-[X2]F[dL]L[Hyp][NMeL]DR-NHcycloheptyl)
14 | < 1000 | CCCCCCCC(=O)N1CCC[C@H](C(=O)N(C)[C@@H](Cc2ccccc2)C(=O)N[C@H](CC(C)C)C(=O)N[C@@H](CC(C)C)C(=O)N2C[C@H](O)C[C@H]2C(=O)N(C)[C@@H](CC(C)C)C(=O)N[C@@H](CC(=O)O)C(=O)N[C@@H](CCCNC(=N)N)C(=O)N[C@H](C(N)=O)[C@@H](C)CC)C1 [JAL-1573, Occ-Sni-Nmf-leu-Leu-Hyp-Nml-Asp-Arg-Ile-NH2] (HELM PEPTIDE1{[CCCCCCCC(=O)[*:2]].[O=C([C@H]1CCCN([*:1])C1)[*:2]].[meF].[dL].L.[Hyp].[meL].D.R.I.[am]}$$$$V2.0)
15 | < 1000 | CCCCCCCC(=O)N1CCC[C@H](C(=O)N[C@@H](Cc2ccccc2)C(=O)N[C@H](CN(C)C)C(=O)N[C@@H](CC(C)C)C(=O)N2C[C@H](N)C[C@H]2C(=O)N(C)[C@@H](CC(C)C)C(=O)N[C@@H](CC(=O)O)C(=O)N2CCC[C@H]2C(=O)NC2CCCCCC2)C1 [JAL-1603, Occ-Sni-Phe-dap(Me2)-Leu-Tap-Nml-Asp-Pro-Che] (Octanoyl-[X2]F[dDap(Me2)]L[Pro(4R-NH2)][NMeL]DP-NHcycloheptyl)

From patent publication US9822147B2, “Methods of treating ophthalmic diseases using NPR-B agonists” (priority 2009, dated 2017)
